Measurements reported in ChEMBL document CHEMBL1201862, “PubChem BioAssay data set” (2004).
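Interpolation was linear, between the two tested concentrations surrounding the appropriate level; five concentrations were tested over 48 hours in 96-well plates. The concentration for 50% growth inhibition is given as GI50.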 Activity calls are given as the source filed them. No stated cut-off is given here; in the data, active = GI50 up to about 1.1 µM and inactive = higher.

Columns and labels:
Assay in all cases: growth of human tumour cells (NCI), 48 h
SNB-75 = tested on: SNB-75
OVCAR-4 = tested on: OVCAR-4
OVCAR-5 = tested on: OVCAR-5
MOLT-4 = tested on: MOLT-4
HCT-116 = tested on: HCT-116
SF-268 = tested on: SF-268
A498 = tested on: A498
TK-10 = tested on: TK-10
BT-549 = tested on: BT-549
CCRF-CEM = tested on: CCRF-CEM
ACHN = tested on: ACHN
NCI-H23 = tested on: NCI-H23
SF-539 = tested on: SF-539
NCI-H522 = tested on: NCI-H522
RXF 393 = tested on: RXF 393
LOX IMVI = tested on: LOX IMVI
MDA-MB-435 = tested on: MDA-MB-435
NCI-H460 = tested on: NCI-H460
HL-60 = tested on: HL-60
M14 = tested on: M14

Measured: GI50

ClCc1nc2ccccc2[nH]1
inactive: SNB-75 66.8 µM | OVCAR-4 > 100 µM | OVCAR-5 > 100 µM | MOLT-4 54 µM | HCT-116 > 100 µM | SF-268 > 100 µM | A498 > 100 µM | TK-10 > 100 µM | BT-549 42.8 µM | CCRF-CEM > 100 µM | ACHN 85.1 µM | NCI-H23 > 100 µM | SF-539 > 100 µM | NCI-H522 > 100 µM | RXF 393 > 100 µM | LOX IMVI 37.2 µM | MDA-MB-435 > 100 µM | NCI-H460 > 100 µM | HL-60 > 100 µM | M14 > 100 µM

O=c1oc2ccc3ccccc3c2cc1-c1nc2ccccc2o1
inactive: SNB-75 17.5 µM | OVCAR-4 21 µM | OVCAR-5 > 100 µM | MOLT-4 35.2 µM | HCT-116 21.7 µM | SF-268 22.1 µM | A498 25.9 µM | TK-10 > 52.1 µM | BT-549 31.3 µM | CCRF-CEM 37.7 µM | ACHN 13.9 µM | NCI-H23 27.4 µM | SF-539 15.8 µM | NCI-H522 21.3 µM | RXF 393 16.1 µM | LOX IMVI 16.6 µM | MDA-MB-435 23.2 µM | NCI-H460 27.5 µM | HL-60 40.6 µM | M14 33.2 µM

O=C1Nc2ccccc2/C1=C\c1c(-c2ccccc2)nc2n1CCS2
inactive: SNB-75 12.1 µM | OVCAR-4 29 µM | OVCAR-5 17.5 µM | MOLT-4 25.8 µM | HCT-116 20.8 µM | SF-268 26.5 µM | A498 18.2 µM | TK-10 13.9 µM | BT-549 20 µM | CCRF-CEM 24.7 µM | ACHN 23.6 µM | NCI-H23 22.9 µM | SF-539 18.7 µM | NCI-H522 18.7 µM | RXF 393 16.7 µM | LOX IMVI 18.3 µM | MDA-MB-435 8.93 µM | NCI-H460 17.3 µM | HL-60 18.2 µM | M14 30.3 µM
